In patent US8865653B2, “Method of treatment for immunogenic treatment resistant cancer” (Institut Gustave Roussy, priority 2010, dated 2014):

How the values were obtained:
MCA205 tumors = experiment: Gene expression assays in tumors (TaqMan RT-PCR) 8 days after DX; type: in vivo, mice; conditions: 8 days post-treatment, quantitative RT-PCR
Procedure: Whole RNA was extracted using RNeasy Mini Kit, QIAGEN from pieces of tumor homogenates. 5 μg of RNA from each sample were reverse-transcribed using Quantitect Reverse Transcription Kit (QIAGEN). Gene expression assays were performed with TaqMan® 96 well Plates customized to test cytokines, chemokines as well as transcription factors using StepOnePlus™ Real-Time PCR System. PPIA was chosen as the endogenous control to perform normalization between different samples.

[1] = tested on: tumor infiltrating lymphocytes (TILs) of MCA205 tumors; experiment: Tumor dissection and flow cytometry of TILs (IFN-γ, IL-17); type: in vivo, mice
Procedure: Tumor burdens were carefully removed, cut into small pieces with scissors within digesting buffer (400 U/ml Collagenase IV and 150 U/ml DNase I in RPMI1640) and incubated for 30 min at 37° C. Single cell suspension was obtained by grinding the digested tissue and filtering through 70 μM cell strainer. […] LIVE/DEAD Fixable Dead Cell Stain Kit was used to distinguish live and dead cells. For intracellular staining, freshly isolated cells were treated with, 50 ng/ml PMA, 1 μg/ml ionomycin and Golgi-stop (BD Pharmingen), 4 hrs, 37° C. in RPMI containing 2% mouse serum (Janvier, France). Cells were then washed with PBS and stained with anti-IFN-γ (PE-cy7) and anti-IL-17 (PE) using BD Cytofix/Cytoperm™ Kit following the instructions.

CT26 colon cancer = experiment: Anthracycline chemotherapy of established CT26 colon cancer; type: in vivo, mice; conditions: single intratumoral injection
Procedure: 0.8 million MCA205 or CT26 or TS/A tumor cells were inoculated subcutaneously near the thigh into C57Bl/6 (H-2^b) or BALB/c (H-2^d) mice. Anthracyclines-based chemotherapy was performed in MCA205 and CT26 models by intratumoral injecting DX (2 mM, […]) when tumors reached the size 25-40 mm^2. Radiotherapy was performed by local X-ray irradiation (10 Gy, RT250, Phillips) at the unshielded tumor area when TS/A tumor reached the size 40-60 mm^2.

MCA 205 tumors = experiment: qRT-PCR of tumor gene expression after Doxorubicin; type: in vivo, mice; conditions: 2 days after treatment; Mavs, Irf3, Irf1 and Tnf unchanged
Procedure: 0.8 Million of MCA 205 has been subcutaneously implanted to C57Bl6 mice.
Tumor samples were freshly collected, briefly washed in RPMI1640 media (GIBCO). Tissue samples were cut to a maximum thickness in any one dimension of 0.5 cm, placed in 5 volumes of RNAlater® (SIGMA ALDRICH). Samples can be stored at room temperature if processed for RNA extraction on the same day or stored at 4° C. for less than 1 month. RNA extraction from each tumor (up to 30 mg/sample) was performed using RNeasy Mini Kit (QIAGEN) following the instructions.
Add 20 μL1 of Master mix (dN6 (3 ng/μl), dNTP (1 mM), Buffer (1×), RNAsin (40 U) Superscript® III RT (200 U)) into the processed mRNA sample. Mix was incubated at 50° C. for 1 h and then inactivated at 75° C. for 15 min.
cDNA of each sample was diluted at 1:3 with DNase free water. For each sample, 4 μl of primer and probe TAQMAN (2×), 10 μl of assay mix (20×), 5 μl diluted cDNA were added. qRT-PCR was performed (45 cycles with standard PCR program using StepOnePlus™ system (Applied Biosystems). PPIA was used as endogenous control gene to normalize gene expression for data analysis.

MCA205 fibrosarcoma = experiment: Chemotherapy and Dendrophilin treatment of established MCA205 tumors; type: in vivo, mice; conditions: doxorubicin intratumorally
Procedure: WT or loss-of-function mice were injected in the right flank with 1×10^6 of EL4 or CT26 or MCA205 cells. Mice were then randomly assigned into treatment groups of 4-6 mice each. […] Two and/or four days after chemo treatment, mice were treated with Dendrophilin or LPS (2 μg in 100 μl NaCl per mouse i.v or i.t). […] Tumor growths were monitored every 3-4 days using a caliper.

U2OS cells = experiment: US Drug library screen: CRT-GFP, HMGB1-GFP, quinacrine; conditions: 1 μM, 4 h / 24 h / 16 h

SMILES: COc1cccc2c1C(=O)c1c(O)c3c(c(O)c1C2=O)C[C@@](O)(C(=O)CO)C[C@@H]3O[C@H]1C[C@H](N)[C@H](O)[C@H](C)O1 [DX, doxorubicin]
- Eomes, Tbx21 (T-bet) and IFN-γ expression increase, DX versus PBS-treated tumors (MCA205 tumors): 4-5 fold
- increase in the proportions of IFN-γ and IL-17 producing TILs ([1]; DX compared with PBS, flow cytometry, day 8): 3 fold
- IFN-γ production by CD8+ and CD4+ TILs and IL-17 production by γδ TILs ([1]; MCA205, post-chemotherapy): substantially enhanced
- tumor growth (CT26 colon cancer): significantly retarded tumor growth
- genes involved in viral recognition and anti-viral immune responses, RT-PCR (MCA 205 tumors): specifically up-regulated
- antitumor effects of chemotherapy alone (MCA205 fibrosarcoma): only mild effects
- rank in screen for exposing CRT and emitting HMGB1 and ATP (U2OS cells): most potent in exposing CRT, and emitting HMGB1 and ATP
